Laboratory results from US9708314B2, “Heterocyclic amide compound” (NISSAN CHEMICAL INDUSTRIES, LTD., priority 2013, dated 2017).

Columns and labels:
Assay type in all cases: in vivo
Zea mays = assay: Test Example 4: effect on crop by application to foliage (diluvial soil, plastic box); conditions: for c: effect on crop, Zea mays: application to foliage, application herbicide amount 320 g/ha
Procedure, shortened: (§1)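 Emulsion-formulated compound, diluted to a predetermined g/ha dose, applied by small sprayer to leaves and stems of 14-day-old seedlings grown in sterilized diluvial soil. Effect rated on 0–5 herbicidal-ratio scale three weeks on.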

Brassica campestris L. = assay: as above; conditions: for g (Brassica campestris L.) effect on crop grade: foliage application; for g: effect on crop, Brassica campestris L.: application to foliage, application herbicide amount 320 g/ha
Procedure, shortened: as §1

[1] = tested on: Beta vulgaris ssp. vulgaris; assay: as above; conditions: for f (Beta vulgaris ssp. vulgaris) effect on crop grade: foliage application; for f: effect on crop, Beta vulgaris ssp. vulgaris: application to foliage, application herbicide amount 320 g/ha
Procedure, shortened: as §1

[2] = tested on: directly sowed Oryza sativa; assay: as above; conditions: for b: effect on crop, directly sowed Oryza sativa: application to foliage, application herbicide amount 320 g/ha
Procedure, shortened: as §1

Triticum aestivum = assay: as above; conditions: for e (Triticum aestivum) effect on crop grade: foliage application; for e: effect on crop, Triticum aestivum: application to foliage, application herbicide amount 320 g/ha
Procedure, shortened: as §1

[3] = tested on: transplanted Oryza sativa; assay: Test Example 1: effect on crop, application before weed generation in submerged conditions; conditions: Application herbicide amount 320 g/ha; Seventeenth Table
Procedure, shortened: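 Rating, on a six-step scale from almost no effect (0) to almost completely withered (5), was made three weeks after pre-emergence treatment. Treatment was surface application to flooded pots at g/ha rates, with plants kept at 25° C. to 30° C.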

[4] = tested on: Echinochloa oryzacola Vasing.; assay: Test Example 2: herbicidal activity, application during weed generation in submerged conditions; conditions: Eighteenth Table; application herbicide amount 320 g/ha
Procedure, shortened: (§2)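 Post-emergence application under submerged conditions: water-diluted emulsion dosed onto the water surface (g/ha) when weeds reach one- to two-leaf stage. Soil flooded to 4 cm; greenhouse 25–30 °C. Herbicidal ratio graded in six classes, 0 (≤5%) to 5 (≥90%), at three weeks.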

Monochoria vaginalis = assay: as above; conditions: Eighteenth Table; application herbicide amount 320 g/ha
Procedure, shortened: as §2

Scirpus juncoides = assay: as above; conditions: Eighteenth Table; application herbicide amount 320 g/ha
Procedure, shortened: as §2

[5] = Application herbicide amount 320 g/ha, foliage application
[6] = Application herbicide amount 320 g/ha
[7] = Application herbicide amount 320 g/ha, effect on crop

Compound | a: transplanted Oryza sativa (effect on crop grade) [3] | A (Echinochloa oryzicola Vasing.) herbicidal ratio grade [4] | C (Monochoria vaginalis) herbicidal ratio grade (Monochoria vaginalis) | B (Scirpus juncoides) herbicidal ratio grade (Scirpus juncoides) | c (Zea mays) effect on crop grade (Zea mays; [5]) | g (Brassica campestris L.) effect on crop grade (Brassica campestris L.; [6]) | f (Beta vulgaris ssp. vulgaris) effect on crop grade [1, 6] | b (directly sowed Oryza sativa) effect on crop grade [2, 5] | e (Triticum aestivum) effect on crop grade (Triticum aestivum; [6]) | c: effect on crop, Zea mays (Zea mays) | g: effect on crop, Brassica campestris L. (Brassica campestris L.) | f: effect on crop, Beta vulgaris ssp. vulgaris [1] | b: effect on crop, directly sowed Oryza sativa [2] | e: effect on crop, Triticum aestivum (Triticum aestivum) | other results
Cn1nnnc1NC(=O)c1ccc(C(F)(F)F)n2c(C[S+](C)[O-])nnc12 (stereo not drawn) [2-033] | 4 (Herbicidal ratio of 70% or more and less than 90%) | 4 (Herbicidal ratio of 70% or more and less than 90%) | 4 (Herbicidal ratio of 70% or more and less than 90%) | 3 (Herbicidal ratio of 40% or more and less than 70%) | – | – | – | – | – | – | – | – | – | – | b (Zea mays) effect on crop grade (Zea mays; foliage application, 320 g/ha): 5 (Herbicidal ratio of 90% or more (almost completely withered)); g (Brassica campestris L.) effect on crop grade (Brassica campestris L.; 320 g/ha): 5 (Herbicidal ratio of 90% or more (almost completely withered)); f (Beta vulgaris ssp. vulgaris) effect on crop grade ([1]; 320 g/ha): 5 (Herbicidal ratio of 90% or more (almost completely withered)); d (directly sowed Oryza sativa) effect on crop grade ([2]; foliage application, 320 g/ha): 5 (Herbicidal ratio of 90% or more (almost completely withered)); e (Triticum aestivum) effect on crop grade (Triticum aestivum; 320 g/ha): 4 (Herbicidal ratio of 70% or more and less than 90%)
COc1ccc(Cc2nnc3c(C(=O)Nc4nnco4)ccc(C(F)(F)F)n23)cc1 [1-151] | 0 (Herbicidal ratio of 5% or less (almost no effect)) | 4 (Herbicidal ratio of 70% or more and less than 90%) | 2 (Herbicidal ratio of 20% or more and less than 40%) | 4 (Herbicidal ratio of 70% or more and less than 90%) | 0 (Herbicidal ratio of 5% or less (almost no effect)) | 5 (Herbicidal ratio of 90% or more (almost completely withered)) | 5 (Herbicidal ratio of 90% or more (almost completely withered)) | 0 (Herbicidal ratio of 5% or less (almost no effect)) | 3 (Herbicidal ratio of 40% or more and less than 70%) | – | – | – | – | – | –
COCCOCc1nnc2c(C(=O)Nc3nnnn3C)ccc(C(F)(F)F)n12 [2-014] | 4 (Herbicidal ratio of 70% or more and less than 90%) | 5 (Herbicidal ratio of 90% or more (almost completely withered)) | 5 (Herbicidal ratio of 90% or more (almost completely withered)) | 5 (Herbicidal ratio of 90% or more (almost completely withered)) | – | – | – | – | – | 3 (Herbicidal ratio of 40% or more and less than 70%) | 4 (Herbicidal ratio of 70% or more and less than 90%) | 5 (Herbicidal ratio of 90% or more (almost completely withered)) | 5 (Herbicidal ratio of 90% or more (almost completely withered)) | 4 (Herbicidal ratio of 70% or more and less than 90%) | –
Cc1nnc(NC(=O)c2ccc(C(F)(F)F)n3c(N4CCS(=O)(=O)CC4)nnc23)o1 [1-120] | 3 (Herbicidal ratio of 40% or more and less than 70%) | 3 (Herbicidal ratio of 40% or more and less than 70%) | 2 (Herbicidal ratio of 20% or more and less than 40%) | 3 (Herbicidal ratio of 40% or more and less than 70%) | 0 (Herbicidal ratio of 5% or less (almost no effect)) | 5 (Herbicidal ratio of 90% or more (almost completely withered)) | 5 (Herbicidal ratio of 90% or more (almost completely withered)) | 2 (Herbicidal ratio of 20% or more and less than 40%) | 3 (Herbicidal ratio of 40% or more and less than 70%) | – | – | – | – | – | –
CN(C)c1nnc2c(C(=O)Nc3nnco3)ccc(C(F)(F)F)n12 [1-103] | 3 (Herbicidal ratio of 40% or more and less than 70%) | 4 (Herbicidal ratio of 70% or more and less than 90%) | 4 (Herbicidal ratio of 70% or more and less than 90%) | 5 (Herbicidal ratio of 90% or more (almost completely withered)) | – | – | – | – | – | – | – | – | – | – | b (Zea mays; [7]): 1 (Herbicidal ratio of 5% or more and less than 20%); g (Brassica campestris L.; [7]): 5 (Herbicidal ratio of 90% or more (almost completely withered)); f [1, 7]: 5 (Herbicidal ratio of 90% or more (almost completely withered)); d [2, 7]: 4 (Herbicidal ratio of 70% or more and less than 90%); e (Triticum aestivum; [7]): 3 (Herbicidal ratio of 40% or more and less than 70%)
Cn1nnnc1NC(=O)c1ccc(C(F)(F)F)n2c(Cl)nnc12 [2-008] | 1 (Herbicidal ratio of 5% or more and less than 20%) | 3 (Herbicidal ratio of 40% or more and less than 70%) | 3 (Herbicidal ratio of 40% or more and less than 70%) | 2 (Herbicidal ratio of 20% or more and less than 40%) | – | – | – | – | – | 0 (Herbicidal ratio of 5% or less (almost no effect)) | 3 (Herbicidal ratio of 40% or more and less than 70%) | 5 (Herbicidal ratio of 90% or more (almost completely withered)) | 1 (Herbicidal ratio of 5% or more and less than 20%) | 2 (Herbicidal ratio of 20% or more and less than 40%) | –
CSCc1nnc2c(C(=O)Nc3nnco3)ccc(C(F)(F)F)n12 [1-146] | 3 (Herbicidal ratio of 40% or more and less than 70%) | 3 (Herbicidal ratio of 40% or more and less than 70%) | 3 (Herbicidal ratio of 40% or more and less than 70%) | 3 (Herbicidal ratio of 40% or more and less than 70%) | 0 (Herbicidal ratio of 5% or less (almost no effect)) | 5 (Herbicidal ratio of 90% or more (almost completely withered)) | 5 (Herbicidal ratio of 90% or more (almost completely withered)) | 5 (Herbicidal ratio of 90% or more (almost completely withered)) | 3 (Herbicidal ratio of 40% or more and less than 70%) | – | – | – | – | – | –
CSc1nnc2c(C(=O)Nc3nnnn3C)ccc(C(F)(F)F)n12 [2-013] | 3 (Herbicidal ratio of 40% or more and less than 70%) | 5 (Herbicidal ratio of 90% or more (almost completely withered)) | 2 (Herbicidal ratio of 20% or more and less than 40%) | 3 (Herbicidal ratio of 40% or more and less than 70%) | – | – | – | – | – | 3 (Herbicidal ratio of 40% or more and less than 70%) | 4 (Herbicidal ratio of 70% or more and less than 90%) | 5 (Herbicidal ratio of 90% or more (almost completely withered)) | 5 (Herbicidal ratio of 90% or more (almost completely withered)) | 4 (Herbicidal ratio of 70% or more and less than 90%) | –
Cc1cc(-c2nnc3c(C(=O)Nc4nnnn4C)ccc(C(F)(F)F)n23)no1 [2-017] | 4 (Herbicidal ratio of 70% or more and less than 90%) | 5 (Herbicidal ratio of 90% or more (almost completely withered)) | 4 (Herbicidal ratio of 70% or more and less than 90%) | 4 (Herbicidal ratio of 70% or more and less than 90%) | – | – | – | – | – | 1 (Herbicidal ratio of 5% or more and less than 20%) | 4 (Herbicidal ratio of 70% or more and less than 90%) | 5 (Herbicidal ratio of 90% or more (almost completely withered)) | 5 (Herbicidal ratio of 90% or more (almost completely withered)) | 3 (Herbicidal ratio of 40% or more and less than 70%) | –
